Measurements: US9169254B2, “Spiroimidazolone derivative” (Chugai Seiyaku Kabushiki Kaisha, priority 2009, dated 2015)

target: T1, human PTH1 receptor (Homo sapiens, UniProt Q03431); assay: In vitro cAMP signal activity in HKRK-B7 cells (LLC-PK1 cells overexpressing the human PTH1 receptor); type: cell-based; conditions: HKRK-B7 cells; compound at 1×10^−3 M; cAMP produced as percentage of that produced by hPTH(1-34) at 100 nM
T1 sequence (Q03431 27-593): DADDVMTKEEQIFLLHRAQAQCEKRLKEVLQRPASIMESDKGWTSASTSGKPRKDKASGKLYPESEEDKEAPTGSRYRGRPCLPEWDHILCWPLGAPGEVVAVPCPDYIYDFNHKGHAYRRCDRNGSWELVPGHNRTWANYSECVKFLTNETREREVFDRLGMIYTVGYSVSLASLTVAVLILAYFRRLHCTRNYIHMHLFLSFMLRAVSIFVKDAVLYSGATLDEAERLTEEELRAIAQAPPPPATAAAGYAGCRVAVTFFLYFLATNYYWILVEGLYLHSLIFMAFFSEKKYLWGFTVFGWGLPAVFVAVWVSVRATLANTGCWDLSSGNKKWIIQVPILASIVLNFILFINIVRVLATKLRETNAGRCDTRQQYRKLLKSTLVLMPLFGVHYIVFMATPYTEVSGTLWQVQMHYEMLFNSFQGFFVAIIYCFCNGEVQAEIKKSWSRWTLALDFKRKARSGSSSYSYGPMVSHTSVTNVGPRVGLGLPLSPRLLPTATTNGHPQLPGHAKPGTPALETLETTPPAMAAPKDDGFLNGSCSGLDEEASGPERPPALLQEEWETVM

cAMP production activity (%) | Structure (SMILES)
95% | Cc1cc(N(C)C(N)=O)cc(C)c1/C=C/S(=O)(=O)N1CCC2(CC1)N=C(c1ccc(CCCC(F)(F)F)cc1)NC2=O [Compound 1088, 1-[3,5-Dimethyl-4-((E)-2-{4-oxo-2-[4-(4,4,4-trifluoro-butyl)-phenyl]-1,3,8-triaza-spiro[4.5]dec-1-ene-8-sulfonyl}-vinyl)-phenyl]-1-methyl-urea]
99% | Cc1cc(N(C)C(N)=O)cc(C)c1/C=C/[S@TB4](=O)(=O)N1CCC2(CC1)N=C(c1cccc(CCCC(F)(F)F)c1)NC2=O [Compound 1089, 1-[3,5-dimethyl-4-((E)-2-{4-oxo-2-[3-(4,4,4-trifluoro-butyl)-phenyl]-1,3,8-triaza-spiro[4.5]dec-1-ene-8-sulfonyl}-vinyl)-phenyl]-1-methyl-urea]
118% | Cc1cc(N(C)C(N)=O)cc(C)c1CC(C)S(=O)(=O)N1CCC2(CC1)N=C(c1cccc(OC(F)(F)F)c1)NC2=O (stereo not drawn) [Compound 1090, 1-(3,5-Dimethyl-4-{2-[4-oxo-2-(3-trifluoromethoxy-phenyl)-1,3,8-triaza-spiro[4.5]dec-1-ene-8-sulfonyl]-propyl}-phenyl)-1-methyl-urea]
118% | Cc1cc(C(=O)N2CCC(O)CC2)cc(C)c1/C=C/S(=O)(=O)N1CCC2(CC1)N=C(c1ccc(F)c(OCCCC(F)(F)C(F)(F)F)c1)NC2=O [Compound 1091, 2-[4-Fluoro-3-(4,4,5,5,5-pentafluoro-pentyloxy)-phenyl]-8-{(E)-2-[4-(4-hydroxy-piperidine-1-carbonyl)-2,6-dimethyl-phenyl]-ethenesulfonyl}-1,3,8-triaza-spiro[4.5]dec-1-en-4-one]
89% | Cc1cc(C(=O)N2CCC(C)(O)CC2)cc(C)c1/C=C/S(=O)(=O)N1CCC2(CC1)N=C(c1ccc(F)c(OCCCC(F)(F)C(F)(F)F)c1)NC2=O [Compound 1092, 2-[4-Fluoro-3-(4,4,5,5,5-pentafluoro-pentyloxy)-phenyl]-8-{(E)-2-[4-(4-hydroxy-4-methyl-piperidine-1-carbonyl)-2,6-dimethyl-phenyl]-ethenesulfonyl}-1,3,8-triaza-spiro[4.5]dec-1-en-4-one]
100% | Cc1cc(C(=O)N2CCC(C)(O)CC2)cc(C)c1/C=C/[S@TB4](=O)(=O)N1CCC2(CC1)N=C(c1ccc(Cl)c(OC(F)(F)F)c1)NC2=O [Compound 1093, 2-(4-chloro-3-trifluoromethoxy-phenyl)-8-{(E)-2-[4-(4-hydroxy-4-methyl-piperidine-1-carbonyl)-2,6-dimethyl-phenyl]-ethenesulfonyl}-1,3,8-triaza-spiro[4.5]dec-1-en-4-one]
100% | Cc1cc(C(=O)N2CCC(C)(O)CC2)cc(C)c1/C=C/[S@TB4](=O)(=O)N1CCC2(CC1)N=C(c1ccc(OC(F)(F)F)c(F)c1)NC2=O [Compound 1094, 2-(3-fluoro-4-trifluoromethoxy-phenyl)-8-{(E)-2-[4-(4-hydroxy-4-methyl-piperidine-1-carbonyl)-2,6-dimethyl-phenyl]-ethenesulfonyl}-1,3,8-triaza-spiro[4.5]dec-1-en-4-one]
105% | Cc1cc(C(=O)N2CCC(C)(O)CC2)cc(C)c1/C=C/[S@TB4](=O)(=O)N1CCC2(CC1)N=C(c1ccc(C(F)(F)F)c(C(F)(F)F)c1)NC2=O [Compound 1095, 2-(3,4-bis-trifluoromethyl-phenyl)-8-{(E)-2-[4-(4-hydroxy-4-methyl-piperidine-1-carbonyl)-2,6-dimethyl-phenyl]-ethenesulfonyl}-1,3,8-triaza-spiro[4.5]dec-1-en-4-one]
93% | Cc1cc(C(=O)N2CCC(C)(O)CC2)cc(C)c1/C=C/[S@TB4](=O)(=O)N1CCC2(CC1)N=C(c1cccc(OCCCC(F)(F)C(F)(F)F)c1)NC2=O [Compound 1096, 8-{(E)-2-[4-(4-hydroxy-4-methyl-piperidine-1-carbonyl)-2,6-dimethyl-phenyl]-ethenesulfonyl}-2-[3-(4,4,5,5,5-pentafluoro-pentyloxy)-phenyl]-1,3,8-triaza-spiro[4.5]dec-1-en-4-one]
